From patent US20210369768A1, “METAL DI-AMINO ACID CHELATES OR METAL TRI-AMINO ACID CHELATES” (Balchem Corporation, priority 2020, published 2021)
Peptide text beside a SMILES is read from it.

Legend:
[1] = tested on: Caco-2 cells; assay: Cellular uptake of magnesium complexes in Caco-2 cells (BioVision colorimetric magnesium uptake assay kit); settings: Example 12, FIG. 72
Description: (§1) Magnesium uptake colorimetric assay kits were purchased from BioVision (Catalog #385-100). […] HEK-293 (ATCC® CRL-1573TM) cells, Caco-2 (ATCC® HTB-37TM) cells, and Dulbecco's Modified Eagle Medium (ATCC® 30-2002) were purchased from ATCC. Penicillin streptomycin (10,000 U/mL), fetal bovine serum (FBS), and trypsin/EDTA (0.25%) were purchased from Gibco™.
(§2) Caco-2 cells were cultured from Liquid N2 frozen stocks and rapidly thawed to RT using a water bath at 37° C.; cryopreservation media was removed with a micropipette after cells were pelleted via centrifugation for 8-10 minutes at 125 g. Cells were resuspended in 1 mL of room temperature DMEM and cultured in 14 mLs DMEM (total volume of 15 mLs) with a seeding density of 3.6×10^4 cells/cm^2 in a T-75 cm^2 culture flask and left to grow in an incubator at 37° C. and 5% CO2. Cells were sub-cultured at 90% confluency, and sub-culturing occurred a minimum of five times before use in uptake assays. When ready-to-use cultures were at 90% confluency, old DMEM media was pipetted off and 3-4 mLs of trypsin was added—the trypsinized culture flask was placed back in the incubator for 5-10 minutes to detach cells. Once detached, the culture flask was rinsed with 6-8 mLs of fresh DMEM to neutralize the trypsin -cells for uptake assays were counted utilizing a DeNovix CellDrop™. Once counted, cells were pelleted down via centrifugation at 125 g for 8-10 minutes, and the neutralized trypsin-media supernatant was pipetted off. Cells were resuspended in 5 mLs magnesium assay buffer for cellular uptake assay.
(§3) Cellular uptake data was collected at incubation times of 1 hr (required kit incubation time), 4 hrs (the amount of time required for uptake in the GI), and 24 hrs (the amount of time required for a complex to clear the GI).
(§4) Kinetics were evaluated utilizing the slope of the line of uptake of the complex in the Caco-2 cells.

[2] = Stability of the complex in solution via 1H NMR; type: physicochemical; settings: 1H NMR in D2O
Description: At 72 hrs, an observable upfield shift occurs, which may be due to isomer formation. There is no observable change in proton integration. NMR taken in D2O.

[3] = tested on: Caco-2 cells
Description: as §1, §2, §3, §4

| Molecule | cellular uptake in CaCo-2 cell line relative to other magnesium complexes [1] | stability in solution [2] | cellular uptake at 24 hrs [3] |
| --- | --- | --- | --- |
| magnesium diglycine [MgG2] | relatively linear uptake in the CaCo-2 cell line similar to that of both magnesium chloride (MgCl2) and magnesium bisglycinate (MgBG) | – | – |
| NCC(=O)[O-].NCC(=O)[O-].[Mg+2] [MgBG, magnesium bisglycinate, reference compound] | significantly less cellular uptake than Mg(G3) | – | – |
| NCC(=O)NCC(=O)NCC(=O)[O-].[Mg+2].[OH-] [Mg(G3), magnesium 2-[[2-[(2-aminoacetyl)amino]acetyl]amino]acetic acid chelate] (H-Gly-Gly-Gly-OH) | – | considerable stability for periods up to 72 hrs | cell saturation |
